Here are results for five molecules from patent EP0019764A1, “Trans-3-(4'-tert.-butyl-cyclohexyl-1')-2-methyl-1-(3'-methylpiperidino, 3',5'-dimethylpiperidino and 2', 6'-dimethylmorpholino) propane, process for their pure preparation, antimycotic agents containing them and their utilisation” (BASF Aktiengesellschaft, priority 1979, dated 1980).

≈ marks a conversion by molar mass, not a printed value. Where two headings read alike, the source gives them in different places. Some results are limits rather than exact numbers.

In one data set the test system is Epidermophyton floccosum. Nature of the data set: agar dilution test, minimal inhibitory concentration. Conditions: Stamm No 157/M, Agardilutionstest, read-out: MHK-Werte. Type of data set: cell-based. The text has this: (§1) Die Wirkung gegenüber Mikroorganismen kann nach Methoden, wie sie beispielsweise in P. Klein, Bakteriologische Grundlagen der chemotherapeutischen Laboratoriumspraxis, Springer-Verlag Berlin, 1957, beschrieben sind, aufgezeigt werden.
(§2) Beispielsweise wurde geprüft, welche minimalen Hemmkonzentrationen (MHK-Werte) im Agardilutionstest gegen pathogene Pilze erreicht werden können.
(§3) In der folgenden Tabelle 1 sind die Ergebnisse zusammengefaßt: […]
On the technique in general: In agar dilution, organisms are placed on agar that contains the substance at set levels.

In the next data set the test system is Microsporum canis. The description is as above. Type of data set: cell-based. Particulars: Agardilutionstest, read-out: MHK-Werte.
From the text: as §1, §2, §3

The next data set deals with Microsporum ferrugineum. The data set is described as above. Type of data set: cell-based. Conditions: Stamm No 5/M, Agardilutionstest, read-out: MHK-Werte.
From the text: as §1, §2, §3

The next data set relates to Microsporum gypseum. The data set is described as above. Type of data set: cell-based. Particulars: Nannizzia gypsea; Stamm No 156/M; Agardilutionstest; read-out: MHK-Werte.
From the text: as §1, §2, §3

Data set [1] concerns Trichophyton mentagrophytes. The data set is described as above. Particulars: Agardilutionstest, read-out: MHK-Werte. Type of data set: cell-based.
From the text: as §1, §2, §3

The next data set relates to Trichophyton rubrum. Described as above. Conditions: Stamm No 158/M, Agardilutionstest, read-out: MHK-Werte. Type of data set: cell-based.
From the text: as §1, §2, §3

Data set [2] has as its system Trichophyton schoenleinii. The data set is described as above. Type of data set: cell-based. Particulars: Stamm No 9/M, Agardilutionstest, read-out: MHK-Werte.
From the text: as §1, §2, §3

The next data set concerns Trichophyton violaceum. Described as above. Type of data set: cell-based. Particulars: Stamm No 10/M, Agardilutionstest, read-out: MHK-Werte.
From the text: as §1, §2, §3

Data set [3] is described as follows: acute oral toxicity (LD50) in the mouse. Particulars: in vivo, Maus per os. The text has this: Aus diesen LD50-Werten ergibt sich für die topische und systemische Anwendung nach oraler Gabe eine genügend therapeutische Breite.
Data set [4] has as its system humanpathogenen Pilzen und Hefen aus dem Verwandtschaftskreis der Dermatophyten. Nature of the data set: inhibitory effect on microorganisms, trans compound compared with cis compound. Type of data set: cell-based. Particulars: compared with the respective cis compound; Hemmeffekte gegenüber Mikroorganismen. The text has this:
Aufgrund der überraschenden Feststellung, daß die reinen trans-Verbindungen gegenüber humanpathogenen Pilzen und Hefen aus dem Verwandtschaftskreis der Dermatophyten um das 10-fache und noch darüber hinaus stärker wirksam sind als die cis-Verbindungen, ist es eine Aufgabe der Erfindung, Verfahren zur Herstellung der reinen trans-Verbindungen (1) bis (3) zu entwickeln.
überraschenderweise sind die reinen trans-Verbindungen fast ausschließlich Träger der guten antimykotischen Wirkung. Verglichen mit der jeweiligen cis-Verbindung und bezogen auf die Hemmeffekte gegenüber Mikroorganismen, sind die trans-Verbindungen (1), (2) und (3) 10-fach und noch darüber hinaus stärker wirksam. Das bedeutet beispielsweise bei etwa gleichen Toxizitätswerten eine wesentliche Verbesserung der therapeutischen Breite.

In the case of `CC1CC(C)CN(CC(C)C[C@H]2CC[C@H](C(C)(C)C)CC2)C1` (relative stereo) [(2) trans, trans-3-(4'-tert.-Butyl-cyclohexyl-1')-2-methyl-1-(3',5'--dimethyl-l'-piperidino)-propan], the MIC in the data set with Epidermophyton floccosum was 0.0156 µg/mL (≈ 0.0507 µM); in the data set on Microsporum canis (Stamm No 155/M) it was 0.0312 µg/mL (≈ 0.101 µM); with Microsporum canis (Stamm No 167/M) it was 0.0156 µg/mL (≈ 0.0507 µM); with Microsporum canis (Stamm No 168/M) it was below 0.0078 µg/mL; in the data set on Microsporum canis (Stamm No 169/M) it was 0.0312 µg/mL (≈ 0.101 µM); in the data set on Microsporum ferrugineum it was below 0.0078 µg/mL. The MIC in the data set with Microsporum gypseum was 0.0312 µg/mL (≈ 0.101 µM); in [1] (Stamm No 19/M), 0.0625 µg/mL (≈ 0.203 µM); in data set [1] (Stamm No 21/M) it was 0.0312 µg/mL (≈ 0.101 µM); in data set [1] (Stamm No 159/M), below 0.0078 µg/mL; in [1] (Stamm No 160/M), 0.0312 µg/mL (≈ 0.101 µM); in data set [1] (Stamm No 170/M) it was below 0.0078 µg/mL. Moreover, the MIC was below 0.0078 µg/mL in [1] (Stamm No 171/M); 0.0312 µg/mL (≈ 0.101 µM) in data set [1] (Stamm No 172/M); 0.0312 µg/mL (≈ 0.101 µM) in [1] (Stamm No 173/M); 0.0156 µg/mL (≈ 0.0507 µM) in data set [1] (Stamm No 174/M); 0.0312 µg/mL (≈ 0.101 µM) in the data set on Trichophyton rubrum; 0.0156 µg/mL (≈ 0.0507 µM) in data set [2]. In addition, the MIC in the data set on Trichophyton violaceum was below 0.0078 µg/mL. For the same molecule, the LD50 (in general, the dose at which mortality reaches 50%) in data set [3] amounted to 335 mg/kg. For the same molecule, the “stärker wirksam als die cis-Verbindung” value in [4] is reported as at least 10 fach.

In the case of `Clc1ccc(COC(Cn2ccnc2)c2ccc(Cl)cc2Cl)c(Cl)c1` (centres unmarked) [Miconazol, reference compound], the MIC in the data set on Epidermophyton floccosum, in the data set on Microsporum canis (Stamm No 155/M), in the data set with Microsporum canis (Stamm No 167/M), in the data set on Microsporum canis (Stamm No 168/M), in the data set on Microsporum canis (Stamm No 169/M) and in the data set with Microsporum ferrugineum was above 1.28 µg/mL throughout. Besides, the MIC with Microsporum gypseum was above 1.28 µg/mL; in [1] (Stamm No 19/M), above 1.28 µg/mL; in data set [1] (Stamm No 21/M), above 1.28 µg/mL; in data set [1] (Stamm No 159/M), 0.32 µg/mL (≈ 0.769 µM); in data set [1] (Stamm No 160/M), above 1.28 µg/mL; in [1] (Stamm No 170/M), 1.28 µg/mL (≈ 3.08 µM). Further, the MIC is 0.64 µg/mL (≈ 1.54 µM) in [1] (Stamm No 171/M); 0.32 µg/mL (≈ 0.769 µM) in [1] (Stamm No 172/M); 0.32 µg/mL (≈ 0.769 µM) in [1] (Stamm No 173/M); above 1.28 µg/mL in data set [1] (Stamm No 174/M); above 1.28 µg/mL with Trichophyton rubrum; above 1.28 µg/mL in data set [2]. Moreover, in the data set with Trichophyton violaceum, the MIC was 0.64 µg/mL (≈ 1.54 µM).

`CC1CCCN(CC(C)C[C@H]2CC[C@@H](C(C)(C)C)CC2)C1` (relative stereo) [(1) cis, cis- und trans-3-(4-tert.-Butyl-cyclohexyl-1)-2-methyl-1-(3'-methyl-1-piperidino)-propan]: the MIC with Epidermophyton floccosum is 0.25 µg/mL (≈ 0.852 µM); in the data set on Microsporum canis (Stamm No 167/M) it was 0.25 µg/mL (≈ 0.852 µM); with Microsporum canis (Stamm No 168/M), 0.0625 µg/mL (≈ 0.213 µM); in the data set on Microsporum canis (Stamm No 169/M) it was 0.5 µg/mL (≈ 1.7 µM); in the data set with Microsporum ferrugineum, 0.0312 µg/mL (≈ 0.106 µM); in the data set with Microsporum gypseum it was 0.25 µg/mL (≈ 0.852 µM). Also, the MIC in data set [1] (Stamm No 19/M) is 0.5 µg/mL (≈ 1.7 µM); in data set [1] (Stamm No 21/M) it was 0.25 µg/mL (≈ 0.852 µM); in [1] (Stamm No 159/M), 0.0312 µg/mL (≈ 0.106 µM); in data set [1] (Stamm No 160/M), 0.25 µg/mL (≈ 0.852 µM); in data set [1] (Stamm No 172/M), 0.5 µg/mL (≈ 1.7 µM); in data set [1] (Stamm No 173/M), 0.25 µg/mL (≈ 0.852 µM). The MIC came out at 0.25 µg/mL (≈ 0.852 µM) in the data set on Trichophyton rubrum and 0.0625 µg/mL (≈ 0.213 µM) in the data set on Trichophyton violaceum.

Regarding `Cc1cccc(N(C)C(=S)Oc2ccc3ccccc3c2)c1` [Tolnaftat, reference compound], the MIC in the data set with Epidermophyton floccosum turned out to be 0.32 µg/mL (≈ 1.04 µM); in the data set with Microsporum canis (Stamm No 155/M), 0.32 µg/mL (≈ 1.04 µM); with Microsporum canis (Stamm No 167/M) it was 0.16 µg/mL (≈ 0.52 µM); in the data set with Microsporum canis (Stamm No 168/M), 0.04 µg/mL (≈ 0.13 µM); in the data set on Microsporum canis (Stamm No 169/M), 0.32 µg/mL (≈ 1.04 µM); in the data set on Microsporum ferrugineum, 0.16 µg/mL (≈ 0.52 µM). In addition, the MIC amounted to 0.16 µg/mL (≈ 0.52 µM) in the data set with Microsporum gypseum; 0.04 µg/mL (≈ 0.13 µM) in data set [1] (Stamm No 19/M); 0.32 µg/mL (≈ 1.04 µM) in [1] (Stamm No 21/M); 0.08 µg/mL (≈ 0.26 µM) in data set [1] (Stamm No 159/M); 0.32 µg/mL (≈ 1.04 µM) in data set [1] (Stamm No 160/M); 0.08 µg/mL (≈ 0.26 µM) in data set [1] (Stamm No 170/M). Besides, the MIC was determined as 0.16 µg/mL (≈ 0.52 µM) in data set [1] (Stamm No 171/M); 0.64 µg/mL (≈ 2.08 µM) in data set [1] (Stamm No 172/M); 0.32 µg/mL (≈ 1.04 µM) in [1] (Stamm No 173/M); 0.08 µg/mL (≈ 0.26 µM) in data set [1] (Stamm No 174/M); 0.08 µg/mL (≈ 0.26 µM) in the data set with Trichophyton rubrum; 0.04 µg/mL (≈ 0.13 µM) in data set [2]. Further, the MIC in the data set with Trichophyton violaceum was below 0.01 µg/mL.

Turning to `CC(CN1C[C@@H](C)O[C@@H](C)C1)C[C@H]1CC[C@@H](C(C)(C)C)CC1` (relative stereo) [(3) cis, cis- und trans-3-(4'-tert.-Butyl-cyclohexyl-l')-2--methyl-l-(2',6'-cis-dimethyl-morpholyl)-propan], the MIC in the data set with Epidermophyton floccosum was 0.25 µg/mL (≈ 0.808 µM); with Microsporum canis (Stamm No 155/M), 0.5 µg/mL (≈ 1.62 µM); with Microsporum canis (Stamm No 167/M), 0.0625 µg/mL (≈ 0.202 µM); in the data set with Microsporum canis (Stamm No 168/M), 0.0625 µg/mL (≈ 0.202 µM); in the data set with Microsporum ferrugineum, 0.0312 µg/mL (≈ 0.101 µM); in data set [1] (Stamm No 19/M) it was 1 µg/mL (≈ 3.23 µM). Moreover, the MIC stood at 1 µg/mL (≈ 3.23 µM) in [1] (Stamm No 21/M); 0.0625 µg/mL (≈ 0.202 µM) in [1] (Stamm No 159/M); 0.0625 µg/mL (≈ 0.202 µM) in data set [1] (Stamm No 170/M); 0.0625 µg/mL (≈ 0.202 µM) in data set [1] (Stamm No 171/M); 0.25 µg/mL (≈ 0.808 µM) in data set [1] (Stamm No 172/M); 0.25 µg/mL (≈ 0.808 µM) in data set [1] (Stamm No 173/M). Further, the MIC with Trichophyton rubrum was above 1 µg/mL.
